Experimental data taken from patent publication US20190231785A1, “PHOSPHODIESTERASE INHIBITOR TREATMENT” (Cyrano Therapeutics, Inc., priority 2012, published 2019).

Legend:
patients with hyposmia = experiment: Side effects of oral theophylline (Example 1); type: in vivo, human; conditions: divided doses in middle of meals
Excerpt: Patients were required to take the drug in divided doses in middle of meals (breakfast and lunch).

[1] = system: patients with hyposmia and hypogeusia; conditions: oral 200 to 800 mg/d
Description: Smell and taste functions under each study condition were measured by standardized psychophysical sensory testing techniques. Measurements included determination of detection thresholds (DTs), recognition thresholds (RTs), magnitude estimation (ME), and hedonic response (HR) for 4 odors (e.g., pyridine [dead fish], nitrobenzene [bitter almond], thiophene [petroleum], and amyl acetate [banana oil]) (olfactometry) and for 4 tastants (e.g., sodium chloride [salt], sucrose [sweet], hydrochloride [sour], and urea [bitter]) (gustometry). […] Each measurement was performed independent of any prior knowledge of response.
Values for the oral trial were taken from the last measurements made before discontinuation of oral drug treatment and before initiation of the intranasal trial. This period varied from 2 to 12 months after oral treatment initiation and reflected the maximal improvement in sensory function each patient experienced.
The mean and standard error of the mean for all values obtained at each study condition were compared. Differences were considered significant if P<0.05 by the unpaired t test. Paired comparison tests were also used with differences considered significant if P<0.05 by the t test.

For Cn1c(=O)c2[nH]cnc2n(C)c1=O [theophylline], the “side effects among patients” value (patients with hyposmia) was “generally minimal”, the “hypogeusia (gustometry overall)” value [1] was “improved after 2 to 12 months of treatment” and the “DTs for sucrose and hydrochloride and RTs for sodium chloride, hydrochloride and urea” value ([1]; 2 to 12 months) was “decreased (more sensitive)”. The “HR for hydrochloride and urea” value ([1]; 2 to 12 months) was “increased (more unpleasant)” and the “magnitude estimations for all tastants” value ([1]; 2 to 12 months) was “increased (more sensitive)”.
